For nine compounds, TGI and GI50 results are on record in PubChem BioAssay (NCI).

Each structure is given as a SMILES string.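 Where inhibition never reached the appropriate level, the endpoint shown equals the highest concentration tested. Otherwise, values were interpolated linearly from a five-concentration, 48-hour dose response in 96-well plates. GI50 = concentration required for 50% inhibition of growth. TGI is the concentration that stops growth completely.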 Where only a bound is given, the exact number is not on record here.

Test systems include MDA-MB-435; RXF 393 renal; OVCAR-3 ovarian; MDA-MB-231 breast; SF-268 CNS; OVCAR-8 ovarian; KM12 colon; UACC-62 melanoma; SN12C renal; CCRF-CEM leukemia.
Holding throughout (assay): DTP human tumour cell line panel, 48 h

With `N=Nc1c(OC(=O)Nc2ccccc2)[nH]c2ccccc12`, the TGI in the experiment on MDA-MB-435 was 45.1 µM; in the experiment with RXF 393 renal, 28.7 µM; in the experiment on OVCAR-3 ovarian, 26.7 µM; in the experiment on MDA-MB-231 breast it was 41.6 µM; in the experiment with SF-268 CNS, greater than 100 µM; with OVCAR-8 ovarian, 33.9 µM. The TGI in the experiment with KM12 colon worked out at 29.3 µM; in the experiment with UACC-62 melanoma, 35.5 µM; in the experiment on SN12C renal it was 48.7 µM.

In the case of `Oc1c(C(Nc2cccc3ccccc23)c2ccccc2)ccc2cccnc12` (stereo not drawn), the GI50 was 5 µM in the experiment on MDA-MB-435; 3.12 µM in the experiment with RXF 393 renal; 3.79 µM in the experiment on OVCAR-3 ovarian; 12 µM in the experiment with MDA-MB-231 breast; 3.04 µM in the experiment on SF-268 CNS; 3.22 µM in the experiment on OVCAR-8 ovarian. Further, the GI50 with KM12 colon was 5.03 µM; in the experiment on UACC-62 melanoma, 2.82 µM; in the experiment with SN12C renal it was 4.1 µM. Besides, the total growth inhibition concentration (TGI) was greater than 100 µM in the experiment with MDA-MB-435; 19.1 µM in the experiment on RXF 393 renal; 19.1 µM with OVCAR-3 ovarian; 70.8 µM in the experiment on MDA-MB-231 breast; 28.7 µM in the experiment on SF-268 CNS; 39.3 µM in the experiment with OVCAR-8 ovarian. Besides, the results for the TGI in the experiment with KM12 colon, with UACC-62 melanoma and with SN12C renal were greater than 100 µM, 39.6 µM and greater than 100 µM, respectively.

Take `Cc1cc(Cc2cc(C)c(O)c(C)c2)cc(C)c1O`: the GI50 was 6.47 µM with RXF 393 renal; 3.43 µM in the experiment on OVCAR-3 ovarian; 6.85 µM in the experiment on MDA-MB-231 breast; 4.14 µM in the experiment on CCRF-CEM leukemia; 7.85 µM in the experiment on SF-268 CNS; 7.59 µM in the experiment with OVCAR-8 ovarian. Also, the results for the GI50 in the experiment with KM12 colon, in the experiment with UACC-62 melanoma and in the experiment on SN12C renal were 3.93 µM, 5.41 µM and 5.12 µM, respectively. Also, the total growth inhibition concentration (TGI) in the experiment with RXF 393 renal was 36.4 µM; in the experiment with OVCAR-3 ovarian, 10.5 µM; in the experiment on MDA-MB-231 breast, 38.3 µM; in the experiment on CCRF-CEM leukemia it was greater than 100 µM; in the experiment on SF-268 CNS it was 86.2 µM; in the experiment with OVCAR-8 ovarian it was greater than 100 µM. Also, the concentration for total growth inhibition (TGI) was 15.7 µM in the experiment on KM12 colon, 62.6 µM in the experiment with UACC-62 melanoma and greater than 100 µM in the experiment with SN12C renal.

Consider `CCN(CC)C(=O)CC1=C(C)/C(=C/c2[nH]c(-c3ccc[nH]3)cc2OC)N=C1C`, for which the GI50 in the experiment on MDA-MB-435 is 0.412 µM; with RXF 393 renal, 1.1 µM; in the experiment with OVCAR-3 ovarian, 0.509 µM; with MDA-MB-231 breast, 0.213 µM; in the experiment with CCRF-CEM leukemia, 0.258 µM; with SF-268 CNS, 0.633 µM. The GI50 is 0.455 µM with OVCAR-8 ovarian and 0.374 µM in the experiment on KM12 colon. The TGI was 14.6 µM in the experiment with MDA-MB-435; 22.9 µM in the experiment with RXF 393 renal; 14.1 µM in the experiment with OVCAR-3 ovarian; 0.909 µM in the experiment on MDA-MB-231 breast; 35 µM with CCRF-CEM leukemia; 21.3 µM in the experiment with SF-268 CNS. In addition, the TGI in the experiment with OVCAR-8 ovarian came out at 22.5 µM; with KM12 colon it was 59.2 µM.

As to `O=[N+]([O-])c1cc([N+](=O)[O-])c(Cl)c(Cl)c1Cl`, the GI50 in the experiment on MDA-MB-435 was 1.72 µM; in the experiment with RXF 393 renal it was 0.636 µM; in the experiment with OVCAR-3 ovarian, 1.18 µM; in the experiment with MDA-MB-231 breast, 1.71 µM; in the experiment with CCRF-CEM leukemia it was 0.459 µM; with SF-268 CNS it was 1.73 µM. The figures for the GI50 with OVCAR-8 ovarian, in the experiment on KM12 colon and in the experiment with UACC-62 melanoma were 1.94 µM, 1.85 µM and 1.31 µM, respectively. For the same compound, the TGI with MDA-MB-435 worked out at 3.33 µM; in the experiment with RXF 393 renal it was 1.86 µM; in the experiment on OVCAR-3 ovarian it was 2.4 µM; in the experiment with MDA-MB-231 breast, 3.24 µM; in the experiment on CCRF-CEM leukemia, 5.78 µM; in the experiment on SF-268 CNS, 3.92 µM. The TGI amounted to 4.57 µM in the experiment on OVCAR-8 ovarian, 3.76 µM in the experiment with KM12 colon and 2.64 µM in the experiment on UACC-62 melanoma.

Regarding `O=C(/C=C1\C(=O)N(Cc2ccc([N+](=O)[O-])cc2)c2ccccc21)c1ccc(OCCN2CCCCC2)cc1`, the GI50 in the experiment with MDA-MB-435 was 1.2 µM; with OVCAR-3 ovarian, 1.25 µM; in the experiment on MDA-MB-231 breast, 1.3 µM; in the experiment on CCRF-CEM leukemia, 0.323 µM; with SF-268 CNS, 1.58 µM; with OVCAR-8 ovarian, 2.21 µM. For the same compound, the results for the GI50 in the experiment on KM12 colon and in the experiment on UACC-62 melanoma were 1.81 µM and 1.44 µM, respectively. The total growth inhibition concentration (TGI) was found to be 2.52 µM with MDA-MB-435; 2.57 µM in the experiment with OVCAR-3 ovarian; 2.67 µM in the experiment on MDA-MB-231 breast; 2.35 µM with CCRF-CEM leukemia; 3.32 µM in the experiment with SF-268 CNS; 4.8 µM in the experiment on OVCAR-8 ovarian. For the same compound, the figures for the TGI with KM12 colon and with UACC-62 melanoma were 3.54 µM and 2.79 µM, respectively.

As for `COc1cc2c(c(OC)c1OC)C(=O)CC(c1cccc(NC(=O)c3ccc(Br)cc3)c1)O2` (stereo not drawn), the GI50 in the experiment on MDA-MB-435 is 1.46 µM; with RXF 393 renal, 4.07 µM; in the experiment on SF-268 CNS it was 2.57 µM; in the experiment with OVCAR-8 ovarian, 2.9 µM; in the experiment with UACC-62 melanoma, 1.57 µM; in the experiment with SN12C renal it was 3.06 µM. For the same compound, the TGI is 4.46 µM in the experiment on MDA-MB-435; greater than 100 µM with RXF 393 renal; greater than 100 µM in the experiment with SF-268 CNS; 9.19 µM with OVCAR-8 ovarian; 4.09 µM in the experiment with UACC-62 melanoma; greater than 100 µM in the experiment with SN12C renal.

In the case of `O=C(Cn1c(=O)c(-c2ccccc2)nc2ccccc21)c1ccc(Cl)cc1`, the GI50 is greater than 100 µM with MDA-MB-435; 46.6 µM in the experiment with OVCAR-3 ovarian; 40.9 µM with MDA-MB-231 breast; greater than 100 µM in the experiment with CCRF-CEM leukemia; greater than 100 µM in the experiment with SF-268 CNS; 51.9 µM in the experiment with OVCAR-8 ovarian. The GI50 was 98.1 µM in the experiment with KM12 colon, greater than 100 µM in the experiment on UACC-62 melanoma and 48.6 µM with SN12C renal. Also, the total growth inhibition concentration (TGI) in the experiment with MDA-MB-435, in the experiment with OVCAR-3 ovarian, with MDA-MB-231 breast, in the experiment on CCRF-CEM leukemia, in the experiment on SF-268 CNS and in the experiment with OVCAR-8 ovarian was greater than 100 µM each time. The TGI with KM12 colon, in the experiment on UACC-62 melanoma and with SN12C renal was greater than 100 µM throughout.

Consider `O=C(CCN1CCOCC1)Nc1ccc(F)cc1F`, for which the TGI with MDA-MB-435, in the experiment with OVCAR-3 ovarian, in the experiment with MDA-MB-231 breast, in the experiment with SF-268 CNS, with OVCAR-8 ovarian and in the experiment with KM12 colon was greater than 100 µM throughout. In addition, the TGI in the experiment on UACC-62 melanoma and in the experiment on SN12C renal was greater than 100 µM each time.

In general, TGI refers to the concentration at which net growth stops. Read a low TGI as greater sensitivity of the cells. Usually GI50 stands for the concentration that inhibits growth by half.
